Results as given in US12707888B2, “Asymmetric donor-acceptor molecular dyes” (THE UNIVERSITY OF NORTH CAROLINA AT CHARLOTTE, priority 2019, dated 2026).

Experiments:
HEK 293T cells = experiment: Photostability under continuous illumination in cells; assay type: cell-based, Human
Method: FIG. 12B details photostability of Bu2N-TTz-Py and VF2.1.Cl in HEK 293T cells (illuminated using λ=440 nm at […]) and their representative pseudo-gray scale images under continuous illumination at wavelength of maximum excitation. Error bars a/b represent the standard error of mean (S.E.M.) for 3 independent experiments, n=12 total cells. Scale bar=10 μm.
Microscopy. Imaging was carried out on an IX83 inverted microscope (Olympus Corporation of the Americas, Center Valley, PA, USA) using 100×, 1.4 NA, DIC oil immersion objective (PLAPON, Olympus) and an Evolve Delta 512 EMCCD camera (Photometrics, USA). Filter wheel, shutter, and CCD camera were controlled using Metamorph premier Ver 7.8.12.0 (Molecular Devices, LLC, USA). For photostability studies, HEK 293T cells were labeled with 500 nM Bu2N-TTz-Py and illuminated continuously with ~5 W cm^−2 power light source, periodically acquiring images at 1 min interval. Bu2N-TTz-Py channel images were obtained using 480/20 bandpass excitation filter, 575/40 bandpass emission filter and 89016 dichroic. VF2.1.Cl channel images were obtained using 500/20 bandpass excitation filter, 535/40 bandpass emission filter and 69002 dichroic. For CellMask™ red, images were obtained using the 640/30 bandpass excitation filter, 705/72 bandpass emission filter and 89016 dichroic.

J774.A1 cells = experiment: Cell labeled spectral measurements; assay type: cell-based, Mouse
Method: FIG. 11C are normalized excitation/emission spectra of 1 μM Bu2N-TTz-Py in PBS buffer with 0.1% TritonX-100 before and after loading into ~0.5×10^5 J774.A1 cells. Excitation spectra (dashed line) were collected at 520 nm and emission spectra (solid line) were collected with 440 nm excitation.
Cell labeled spectral measurements. Excitation and emission spectra were collected by labeling the alveolar macrophage cell line J774.A1 (~0.5×10^5 cells) with 1 μM Bu2N-TTz-Py in phosphate buffered saline (PBS) buffer and 0.1% TritonX-100. Cells were incubated with dye for 10 min at RT, washed thrice with PBS, and dispersed in a cuvette for fluorescent spectral measurements (Fluoromax-4, Horiba Scientific, Edison, NJ, USA). Excitation spectra were collected at 520 nm emission. Emission spectra were collected by exciting at 440 nm. Electrophysiology. Whole cell voltage clamping measurements of 500 nM Bu2N-TTz-Py labeled HEK 293T cells were performed with Axopatch 200A amplifier (Molecular Devices), digitized using an NI-6251 DAQ (National Instruments), and controlled using WinWCP software (Strathclyde Electrophysiology Software). Patch pipettes were pulled using a Sutter P-97 Micropipette puller. Patch pipettes with resistances between 5-10 MOhm were used in voltage clamping experiments. The patch pipette was positioned using an MP325 motorized manipulator (Sutter). Metamorph premier Ver. 7.8.12.0 was linked to an NI-6501 DAQ to enable voltage triggered image acquisition. Extracellular solution composition was 145 mM NaCl, 20 mM glucose, 10 mM HEPES, pH 7.4, 3 mM KCl, 2 mM CaCl2), 1 mM MgCl2 (310 mOsm); and the intracellular solution composition was 115 mM potassium gluconate, 10 mM EGTA tetrapotassium salt, 10 mM HEPES, pH 7.2, 5 mM NaCl, 10 mM KCl, 2 mM ATP disodium salt (290 mOsm).

[1] = Lippert-Mataga analysis of excited state dipole moments; assay type: physicochemical; conditions: semi-empirically calculated using the Lippert-Mataga equation
Method: The calculated HOMOs/LUMOs indicate that the strong solvatofluorochromism arises from an ICT mechanism, whereby the ground state has significant electron localization on the donor side of the molecule whereas the electron density shifts to the acceptor moiety in the excited state. To more directly quantify the strong ICT character of the TTz dyes, the excited-state dipole moments were calculated using the Lippert-Mataga equation (Eq 1):
[formula] where va and vf are the wavenumbers of the absorption and emission peaks in cm^−1, respectively; μ* and μ are the excited state and ground state dipoles, respectively; ϵ0 is the vacuum permittivity, h is Planck's constant, c is the speed of light, a is the Onsager cavity radius, Δf is the orientation polarizability, ϵ is the relative permittivity, and η is the refractive index. The dipoles were calculated using Spartan 2016 software, and the Onsager cavity radii were calculated using Gaussian '09 software.
FIGS. 9A and 9B show the Stokes shift of Bu2N-TTz-Py and Ph2N-TTz-COOH versus Δf, respectively. From the slopes of the Lippert-Mataga plots, the change between the dipole moments of the ground and excited states can be determined. Even though the Lippert-Mataga equation assumes no specific solvent-solute interactions (e.g. hydrogen bonding) and ignores solute polarizability, high degrees of linearity are apparent; and therefore, the estimations of the excited state dipoles are regarded as reliable. […] Perhaps owing to the minimal solvent interactions and rapid vibrational relaxation, the estimated changes in dipole moments (Δμ) are remarkably large (Table IV). […] Therefore, it is expected that these asymmetric TTzs dyes would be well suited to give high sensitivity in sensing applications whereby small changes in the polarity of the environment can lead to large differences in the wavelengths of fluorescence.

CCCCN(CCCC)c1ccc(-c2nc3sc(-c4ccncc4)nc3s2)cc1 [Bu2N-TTz-Py, 2-(N,N-dibutyl-4-aminophenyl)-5-(4-pyridyl) thiazolo[5,4-d]thiazole]
molar absorptivity ε (HEK 293T cells; @ 440 nm LED): 15,000-20,000 cm^−1 M^−1 | decay of fluorescence intensity (HEK 293T cells; in the same amount of time (approx. 7.5 minutes), I=5 W cm^−2, 440 nm LED): less than 10% | peak emission wavelength (J774.A1 cells; localized to cell membranes, 440 nm excitation): 483 nm | peak excitation wavelength (J774.A1 cells; localized to cell membranes, collected at 520 nm emission): 423 nm | wavelength of peak emission (J774.A1 cells; solution of PBS with 0.1% Triton-X100, before loading into cells): 518 nm | Change in Dipole Δμ [1]: 15.9 D | Excited State Dipole μ* [1]: 24.3 D
